{"source": "paper PMC3929365", "about": "“Benzimidazoisoquinolines: A New Class of Rapidly Metabolized Aryl Hydrocarbon Receptor (AhR) Ligands that Induce AhR-Dependent Tregs and Prevent Murine Graft-Versus-Host Disease” (PLoS ONE, 2014)", "key": {"AhR [1]": {"system": "AhR", "experiment": "Electrophoretic mobility shift assay, binding of AhR to XRE", "assay_type": "biochemical, mouse", "details": "10 nM, 2 h, Hepa1c1c7 whole cell lysate", "method": "(§1) Figure 1 10-Cl-BBQ is a potent AhR ligand. A) Structure of 10-Cl-BBQ. […] C) Hepa-1 cells expressing endogenous AhR were transfected with an AhR-regulated luciferase reporter gene (xenobiotic responsive element (XRE)-MMTVpromoter-Luc) and the reporter gene activity was measured after 12 h of treatment with 1 nM TCDD or the indicated concentrations of 10-Cl-BBQ. D) Alteration in proteolytic pattern of AhR by 10-Cl-BBQ. Whole cell lysate (45 µg of protein) from mouse hepatoma Hepa1c1c7 cells was incubated with 100 nM 10-Cl-BBQ or 0.1% DMSO for 1 h at RT and proteolyzed by 1 µg/ml subtilisin for 1, 2, 4, and 8 min at RT. Proteolytic cleavage products of AhR were analyzed by immunoblot. E) Electrophoretic mobility shift assay showing the ligand-stimulated binding of AhR to XRE. Whole cell lysate (18 µg of protein) from mouse hepatoma Hepa1c1c7 cells was incubated with 10 nM 10-Cl-BBQ or 0.1% DMSO for 2 h at room temperature and ^32P-labeled oligonucleotide containing XRE for 20 min at room temperature. The samples were electrophoresed on a native polyacrylamide gel and the signal was visualized by Phosphor Imager. Unlabeled competitor XRE or antibody (Ab) against AhR or Arnt was co-incubated with ^32P-labeled oligonucleotide."}, "AhR [2]": {"system": "AhR", "protocol": "The AhR reporter gene assay was performed as previously described (20–22).\nB) Hepa1 cells expressing endogenous AhR were transfected with a XRE-luciferase reporter gene. […] The mean luciferase activity is shown with SEM. C) Dose response curves for the competitive inhibition of [^3H] 3-MC binding to AhR.\n3-methylcholanthrene (3-MC) to AhR (Fig. 5C)."}, "Foxp3": {"system": "Foxp3", "experiment": "Lymph node gene expression (RT-qPCR) during the GVH response", "assay_type": "in vivo, B6D2F1 host mice", "details": "any dose (0.4, 2 or 10 mg/kg/day), lymph nodes, 48 h", "method": "RNA was isolated from lymph nodes of B6D2F1 host mice with the RNeasy Mini Kit (Qiagen). cDNA was prepared from at least 1 µg RNA in a 2-step reaction using the ReactionReady First Strand cDNA synthesis kit (SA Biosciences) according to the manufacturer’s instructions and Superscript III reverse-transcriptase (Life Technologies). The qPCR reaction was carried out on an ABI PRISM 7500 Real-Time PCR system (Applied Biosystems). The reaction mixture consisted of SYBR Green/ROX qPCR Master Mix (SA Bioscience), 2–10 ng-RNA equivalent cDNA and 1 µl of the gene-specific commercial primer sets (SA Biosciences). The following conditions were used: 10 min at 95°C (1 cycle), 15 s at 95°C and 1 min at 60°C (40 cycles). […] The raw data was normalized to Actb and the fold-change was calculated by the ΔΔCt method using vehicle-treated sample values as the control.\nFigure 3 10-Cl-BBQ induces an AhR-dependent Treg phenotype 48 h after initiating the GVH response. […] E) In the same mice as in D, lymph nodes were harvested and analyzed for expression of genes that were previously shown to increase under the same GVH conditions with TCDD treatment (13). […] Changes in gene expression were calculated relative to the β-actin gene, and the fold-induction was calculated by the ΔΔCt method using the vehicle-treated samples as a control. * = p<0.05 relative to vehicle treatment. […]"}, "AhR [3]": {"system": "AhR", "experiment": "Subtilisin proteolysis pattern of AhR in Hepa1c1c7 whole cell lysate", "assay_type": "biochemical, mouse", "details": "100 nM, 1 h, 1 µg/ml subtilisin", "method": "as §1"}, "CYP1A1 mRNA": {"system": "CYP1A1 mRNA", "experiment": "Hepatic CYP1A1 mRNA induction after single i.p. dose", "assay_type": "in vivo, C57BL/6 mice", "details": "10 mg/kg i.p.", "method": "RNA was isolated from lymph nodes of B6D2F1 host mice with the RNeasy Mini Kit (Qiagen). cDNA was prepared from at least 1 µg RNA in a 2-step reaction using the ReactionReady First Strand cDNA synthesis kit (SA Biosciences) according to the manufacturer’s instructions and Superscript III reverse-transcriptase (Life Technologies). The qPCR reaction was carried out on an ABI PRISM 7500 Real-Time PCR system (Applied Biosystems). The reaction mixture consisted of SYBR Green/ROX qPCR Master Mix (SA Bioscience), 2–10 ng-RNA equivalent cDNA and 1 µl of the gene-specific commercial primer sets (SA Biosciences). The following conditions were used: 10 min at 95°C (1 cycle), 15 s at 95°C and 1 min at 60°C (40 cycles). The melt-curve was generated at 95°C for 15 s. The process was validated by utilizing a no-reverse-transcriptase control. The raw data was normalized to Actb and the fold-change was calculated by the ΔΔCt method using vehicle-treated sample values as the control.\nFigure 2 Pharmacokinetics of 10-Cl-BBQ. C57BL/6 mice were given 10 mg/kg 10-Cl-BBQ by i.p. injection. A) Blood was collected at the indicated times by cardiac puncture. The serum was processed to remove protein and the samples were analyzed by QTRAP 4000 LC/MS/MS. The serum concentration of 10-Cl-BBQ was determined from a standard curve based on known concentrations of 10-Cl-BBQ. B) Liver tissue was harvested and processed for mRNA analysis. CYP1A1 gene expression was determined relative to the β-actin gene, and the fold-induction was determined by the ΔΔCt method using the vehicle-treated samples as a control. The mean values are shown with SEM for 2–3 mice per time point."}, "AhR [4]": {"system": "AhR", "experiment": "AhR-regulated (XRE) luciferase reporter gene assay in Hepa-1 cells", "assay_type": "cell-based, mouse", "details": "nanomolar concentrations, 12 h, Hepa-1 cells", "method": "as §1\nThe mean luciferase activity is shown with SEM. […] 3-MC binding to AhR."}}}
{"molecule": "O=c1c2cccc3cccc(c32)c2nc3ccc(Cl)cc3n12", "note": "[10-Cl-BBQ, 10-chloro-7H-benzimidazo[2,1-a]benzo[de]isoquinolin-7-one]", "values": [{"measurement": "DNA binding of AhR (XRE)", "setting": "AhR [1]", "result": "specifically induced DNA binding of AhR"}, {"measurement": "IC50", "setting": "AhR [2]", "result": 2.6, "unit": "nM"}, {"measurement": "expression of Foxp3", "setting": "Foxp3", "result": "did not induce expression of Foxp3"}, {"measurement": "proteolysis of AhR", "setting": "AhR [3]", "result": "delayed its proteolysis"}, {"measurement": "Cyp1a1 mRNA induction in hepatic tissue", "setting": "CYP1A1 mRNA; 4 hours", "result": 2, "unit": "fold"}, {"measurement": "Cyp1a1 mRNA induction in hepatic tissue", "setting": "CYP1A1 mRNA; 20 hr", "result": "up to 7 fold"}, {"measurement": "Cyp1a1 mRNA induction in hepatic tissue", "setting": "CYP1A1 mRNA; 48 h", "result": "no longer apparent"}, {"measurement": "activation of the AhR-regulated reporter gene", "setting": "AhR [4]", "result": "activated the AhR-regulated reporter gene"}]}
